Assay type in all cases: functional
One experiment relates to Fusarium oxysporum. The experiment is described as follows: Antifungal activity against Fusarium oxysporum by liquid dilution technique.
In a further experiment the test system is Pseudomonas aeruginosa. As to the kind of experiment: Antibacterial activity against Pseudomonas aeruginosa MTCC 424 by liquid dilution technique.
The test system of another experiment is Staphylococcus aureus. The experiment is described as follows: Antibacterial activity against Staphylococcus aureus MTCC 96 by liquid dilution technique.
The subject of the next experiment is Escherichia coli. The experiment is described as follows: Antibacterial activity against Escherichia coli MTCC 40 by liquid dilution technique.
For a further experiment, the system named is Bacillus subtilis. As to the kind of experiment: Antibacterial activity against Bacillus subtilis MTCC 619 by liquid dilution technique.
The test system of the next experiment is Aspergillus niger. As to the kind of experiment: Antifungal activity against Aspergillus niger MTCC 1344 by liquid dilution technique.

Converted amounts (≈) assume the structure as drawn. The source made the active and inactive calls. The calls are words filed in the database; no cut-off is given here.

Usually MIC stands for the least concentration at which growth counts as inhibited.

Consider `Cc1ccc(-c2nnc(-n3c(/C=C/c4ccc(Cl)cc4)nc4ccccc4c3=O)o2)cc1`, for which the MIC entry in the experiment on Fusarium oxysporum, in the experiment on Pseudomonas aeruginosa, in the experiment on Staphylococcus aureus, in the experiment with Escherichia coli, with Bacillus subtilis and in the experiment on Aspergillus niger was “inactive” each time.

On to `O=c1c2ccccc2nc(/C=C/c2ccccc2)n1-c1nnc(-c2ccccc2)o1`, for which the minimum inhibitory concentration (MIC) turned out to be 152 µg/mL (≈ 387 µM) in the experiment on Fusarium oxysporum; 90 µg/mL (≈ 229 µM) in the experiment on Pseudomonas aeruginosa; 82 µg/mL (≈ 209 µM) against Staphylococcus aureus; 76 µg/mL (≈ 194 µM) with Escherichia coli; 80 µg/mL (≈ 204 µM) in the experiment with Bacillus subtilis; 143 µg/mL (≈ 364 µM) with Aspergillus niger.

With `O=c1c2ccccc2nc(/C=C/c2ccccc2)n1-c1nnc(-c2ccc(Cl)cc2)o1`, the MIC worked out at 141 µg/mL (≈ 330 µM) with Fusarium oxysporum; 86 µg/mL (≈ 201 µM) with Pseudomonas aeruginosa; 79 µg/mL (≈ 185 µM) with Staphylococcus aureus; 70 µg/mL (≈ 164 µM) with Escherichia coli; 75 µg/mL (≈ 176 µM) in the experiment on Bacillus subtilis; 130 µg/mL (≈ 305 µM) against Aspergillus niger.

Turning to `Cc1ccc(/C=C/c2nc3ccccc3c(=O)n2-c2nnc(-c3ccccc3)o2)cc1`, the MIC entry in the experiment with Fusarium oxysporum, in the experiment on Pseudomonas aeruginosa, with Staphylococcus aureus, with Escherichia coli, with Bacillus subtilis and with Aspergillus niger was “inactive” in each case.

Regarding `Cc1nc2ccccc2c(=O)n1-c1nnc(-c2ccc(Cl)cc2)o1`, the MIC in the experiment on Fusarium oxysporum came out at 184 µg/mL (≈ 543 µM); against Pseudomonas aeruginosa it was 98 µg/mL (≈ 289 µM); in the experiment with Staphylococcus aureus it was 89 µg/mL (≈ 263 µM); in the experiment with Escherichia coli it was 82 µg/mL (≈ 242 µM); with Bacillus subtilis it was 84 µg/mL (≈ 248 µM); with Aspergillus niger, 172 µg/mL (≈ 508 µM).

On to `CN(C)c1ccc(-c2nnc(-n3c(/C=C/c4ccccc4)nc4ccccc4c3=O)o2)cc1`, for which the minimal inhibitory concentration (MIC) was determined as 166 µg/mL (≈ 381 µM) in the experiment with Fusarium oxysporum; 94 µg/mL (≈ 216 µM) in the experiment with Pseudomonas aeruginosa; 88 µg/mL (≈ 202 µM) in the experiment on Staphylococcus aureus; 79 µg/mL (≈ 181 µM) with Escherichia coli; 83 µg/mL (≈ 191 µM) with Bacillus subtilis; 155 µg/mL (≈ 356 µM) against Aspergillus niger.

With `Cc1ccc(-c2nnc(-n3c(C)nc4ccccc4c3=O)o2)cc1`, the minimal inhibitory concentration (MIC) worked out at 180 µg/mL (≈ 565 µM) with Fusarium oxysporum; 138 µg/mL (≈ 434 µM) with Pseudomonas aeruginosa; 127 µg/mL (≈ 399 µM) against Staphylococcus aureus; 115 µg/mL (≈ 361 µM) against Escherichia coli; 122 µg/mL (≈ 383 µM) against Bacillus subtilis; 165 µg/mL (≈ 518 µM) with Aspergillus niger.

As to `COc1ccc(-c2nnc(-n3c(C)nc4ccccc4c3=O)o2)cc1`, the MIC was found to be 175 µg/mL (≈ 523 µM) against Fusarium oxysporum; 100 µg/mL (≈ 299 µM) against Pseudomonas aeruginosa; 90 µg/mL (≈ 269 µM) against Staphylococcus aureus; 80 µg/mL (≈ 239 µM) against Escherichia coli; 85 µg/mL (≈ 254 µM) in the experiment on Bacillus subtilis; 165 µg/mL (≈ 494 µM) with Aspergillus niger.

With `O=c1c2ccccc2nc(/C=C/c2ccc(Cl)cc2)n1-c1nnc(-c2ccccc2)o1`, the MIC entry in the experiment on Fusarium oxysporum, in the experiment with Pseudomonas aeruginosa, in the experiment on Staphylococcus aureus, with Escherichia coli, in the experiment with Bacillus subtilis and with Aspergillus niger was “inactive” in each case.

As for `COc1ccc(-c2nnc(-n3c(/C=C/c4ccc(Cl)cc4)nc4ccccc4c3=O)o2)cc1`, the MIC entry with Fusarium oxysporum, in the experiment with Pseudomonas aeruginosa, with Staphylococcus aureus, with Escherichia coli, in the experiment with Bacillus subtilis and in the experiment with Aspergillus niger was “inactive” throughout.

As to `Cc1ccc(/C=C/c2nc3ccccc3c(=O)n2-c2nnc(-c3ccc(N(C)C)cc3)o2)cc1`, the MIC entry in the experiment on Fusarium oxysporum, with Pseudomonas aeruginosa, with Staphylococcus aureus, in the experiment on Escherichia coli, in the experiment on Bacillus subtilis and in the experiment with Aspergillus niger was “inactive” throughout.

Regarding `COc1ccc(-c2nnc(-n3c(/C=C/c4ccccc4)nc4ccccc4c3=O)o2)cc1`, the MIC entry with Fusarium oxysporum, in the experiment with Pseudomonas aeruginosa, in the experiment on Staphylococcus aureus, with Escherichia coli, in the experiment with Bacillus subtilis and in the experiment with Aspergillus niger was “inactive” in each case.

Consider `Cc1nc2ccccc2c(=O)n1-c1nnc(-c2ccc(N(C)C)cc2)o1`, for which the MIC against Fusarium oxysporum came out at 179 µg/mL (≈ 515 µM); in the experiment on Pseudomonas aeruginosa, 95 µg/mL (≈ 273 µM); in the experiment with Staphylococcus aureus, 88 µg/mL (≈ 253 µM); in the experiment on Escherichia coli, 84 µg/mL (≈ 242 µM); against Bacillus subtilis, 88 µg/mL (≈ 253 µM); in the experiment with Aspergillus niger, 170 µg/mL (≈ 489 µM).

Consider `Cc1ccc(/C=C/c2nc3ccccc3c(=O)n2-c2nnc(-c3ccc(C)cc3)o2)cc1`, for which the MIC result with Fusarium oxysporum, in the experiment on Pseudomonas aeruginosa, in the experiment on Staphylococcus aureus, in the experiment with Escherichia coli, in the experiment with Bacillus subtilis and with Aspergillus niger was “inactive” throughout.

For the compound `COc1ccc(-c2nnc(-n3c(/C=C/c4ccc(C)cc4)nc4ccccc4c3=O)o2)cc1`, the MIC result in the experiment with Fusarium oxysporum, with Pseudomonas aeruginosa, in the experiment on Staphylococcus aureus, in the experiment on Escherichia coli, in the experiment on Bacillus subtilis and in the experiment with Aspergillus niger was “inactive” each time.

Regarding `Cc1ccc(/C=C/c2nc3ccccc3c(=O)n2-c2nnc(-c3ccc(Cl)cc3)o2)cc1`, the MIC result with Fusarium oxysporum, with Pseudomonas aeruginosa, with Staphylococcus aureus, in the experiment with Escherichia coli, with Bacillus subtilis and with Aspergillus niger was “inactive” each time.

`Cc1nc2ccccc2c(=O)n1-c1nnc(-c2ccccc2)o1`: the MIC was found to be 192 µg/mL (≈ 631 µM) in the experiment on Fusarium oxysporum; 135 µg/mL (≈ 444 µM) against Pseudomonas aeruginosa; 130 µg/mL (≈ 427 µM) against Staphylococcus aureus; 120 µg/mL (≈ 394 µM) in the experiment on Escherichia coli; 127 µg/mL (≈ 417 µM) with Bacillus subtilis; 185 µg/mL (≈ 608 µM) in the experiment with Aspergillus niger.

With `CCn1cc(C(=O)O)c(=O)c2cc(F)c(N3CCNCC3)cc21` [NORFLOXACIN], the minimum inhibitory concentration (MIC) was determined as 8 µg/mL (≈ 25.1 µM) against Pseudomonas aeruginosa, 6 µg/mL (≈ 18.8 µM) against Staphylococcus aureus, 4 µg/mL (≈ 12.5 µM) in the experiment with Escherichia coli and 5 µg/mL (≈ 15.7 µM) in the experiment on Bacillus subtilis.

As to `Clc1ccccc1C(c1ccccc1)(c1ccccc1)n1ccnc1` [CLOTRIMAZOLE], the MIC against Fusarium oxysporum came to 8 µg/mL (≈ 23.2 µM); in the experiment with Aspergillus niger, 6 µg/mL (≈ 17.4 µM).

Take `Cc1ccc(-c2nnc(-n3c(/C=C/c4ccccc4)nc4ccccc4c3=O)o2)cc1`: the minimal inhibitory concentration (MIC) against Fusarium oxysporum turned out to be 156 µg/mL (≈ 384 µM); in the experiment with Pseudomonas aeruginosa, 92 µg/mL (≈ 226 µM); with Staphylococcus aureus it was 85 µg/mL (≈ 209 µM); against Escherichia coli it was 81 µg/mL (≈ 199 µM); with Bacillus subtilis it was 83 µg/mL (≈ 204 µM); against Aspergillus niger, 145 µg/mL (≈ 357 µM).

Consider `CN(C)c1ccc(-c2nnc(-n3c(/C=C/c4ccc(Cl)cc4)nc4ccccc4c3=O)o2)cc1`, for which the MIC result in the experiment with Fusarium oxysporum, with Pseudomonas aeruginosa, in the experiment on Staphylococcus aureus, in the experiment on Escherichia coli, in the experiment on Bacillus subtilis and in the experiment with Aspergillus niger was “inactive” throughout.

On to `O=c1c2ccccc2nc(/C=C/c2ccc(Cl)cc2)n1-c1nnc(-c2ccc(Cl)cc2)o1`, for which the MIC entry in the experiment on Fusarium oxysporum, in the experiment on Pseudomonas aeruginosa, in the experiment with Staphylococcus aureus, in the experiment on Escherichia coli, in the experiment on Bacillus subtilis and in the experiment on Aspergillus niger was “inactive” in each case.

The values are drawn from ChEMBL document CHEMBL3045957, “Synthesis and antimicrobial activity of some new 3[5-(4-substituted) phenyl-1,3,4-oxadiazole-2yl]-2- styrylquinazoline-4(3H)-ones” (2008).
